Experimental data: US20230332232A1, “COMPOSITIONS AND METHODS FOR DIAGNOSING AND TREATING A DYSTONIA” (Duke University, priority 2020, published 2023)

Tested on: DYT1 knockin (Tor1a^delGAG/+) murine embryonic fibroblasts (MEFs)
Assay: microRNA-seq of EVs from DYT1 MEFs treated with drug, compared with non-treated DYT1 MEFs
Format: cell-based, mouse
Conditions: for Sal Direction Opposite ISRIB?: EVs of DYT1 (Het) MEFs
Description: In addition to proteomic analysis, total RNA-seq and microRNA-seq was performed on RNA isolated in parallel from the EV samples of Cohort 2. As with the proteomic analysis, one biological replicate was prepared from 3 distinct biological clonal cell lines for each genotype. Here, EVs were isolated from conditioned cell culture media by 18 hour ultracentrifugation at 100,000 g. RNA was extracted using the Qiagen miRNeasy Micro Kit (Cat. No. 217084) according to the manufacturer's protocol. Two RNA fractions were extracted from each sample, one enriched in coding and non-coding RNA species>200 nt (“Total RNA” fraction) and one enriched for small RNAs<200 nt (“miRNA” fraction). RNA samples were then submitted to the Duke Sequencing and Genomic Technologies shared resource for further quality control and sequencing. Samples were assessed for concentration and integrity by Qubit and Fragment Analyzer. The miRNA fractions were 4.16 ng/μL-47.57 ng/μL and total RNA fractions were 3.8 ng/μL-43.6 ng/μL. The small RNA library was prepared using the QIAseq miRNA Library Kit (Cat No./ID: 331505) and sequenced on the Illumina NextSeq 500 High-Output platform with 75 bp single-reads. The total RNA library was prepared using the Illumina TruSeq Stranded Total RNA-seq Kit with Ribozero Gold ribosomal RNA reduction and sequenced on the Illumina NovaSeq 6000 S1 platform with 100 bp paired-end reads. Sequencer lane pooling and read depth are attached in the Excel data summary (See “RNA QC” Tab). Data processing and analysis were performed in collaboration with the Duke Genomic Analysis and Bioinformatics shared resource. RNA-seq data was processed using the TrimGalore toolkit (http://www.bioinformatics.babraham.ac.uk/projects/trim_galore), which employs Cutadapt(Martin M. (2011) EMBnet.journal. 17(1):10-12) to trim low quality bases and Illumina sequencing adapters from the 3' end of the reads. Only reads that were 20 nt or longer after trimming were kept for further analysis. Reads were mapped to the mouse genome and transcriptome ([…], et al. (2012) Nucleic Acids Res. 40(Database issue):[…]-97) using the STAR RNA-seq alignment tool (Dobin A, et al. (2013). Bioinformatics. 29(1):15-21). If the reads mapped to a single genomic location, then they were kept for subsequent analysis. Gene counts were compiled using the HTSeq tool (http://www-huber.embl.de/users/anders/HTSeq/). Only genes that had at least 10 reads in any given library were used in subsequent analysis. Normalization and differential expression was carried out using the DESeq26 Bioconductor (Huber W, et al. (2015) Nat Methods. 12(2):115-121) package with the R statistical programming environment (www.r-project.org). […] 694 miRNAs were initially examined with respect to QC, genotype, RTV effects, and ISRIB effects. This subset was the “Full miRNA” subset. FIG. 9A and FIG. 9B show the RTV effect on EV composition in DYT1 cells compared to WT cells for 279 miRNAs, respectively. […] Beginning with the 694 miRNAs in the “Full miRNA” subset, more than 60 molecules were detected in either WT cells or DYT1 cells (WT or Het UMI>60). […] The candidate miRNAs were ranked by the sum of genotype-dependent absolute Z-scores and RTV-induced absolute Z-scores (Abs Z Score Sum (Geno+RTV)). This subset was the “miRNA-Ritonavir Therapeutic Efficacy” subset and contained 201 miRNAs.

[1] = SAL-treated vs non-treated DYT1 (Het) MEF EVs

O=C(/C=C/c1ccccc1)NC(NC(=S)Nc1cccc2cccnc12)C(Cl)(Cl)Cl (centres unmarked) [SAL, Salubrinal]
mmu-miR-147-5p: SALvHet Z Score [1]: −0.16
mmu-miR-181a-1-3p: SALvHet Z Score [1]: −0.12
mmu-miR-181a-1-3p: Sal Direction Opposite ISRIB? [1]: yes
mmu-miR-331-5p: SALvHet Z Score [1]: 0.66
mmu-miR-668-3p: SALvHet Z Score [1]: 0.34
mmu-miR-1930-5p: SALvHet Z Score [1]: −1.60
mmu-miR-1943-5p: SALvHet Z Score [1]: −0.08
mmu-miR-1955-5p: SALvHet Z Score [1]: 1.06
mmu-miR-3072-5p: SALvHet Z Score [1]: 0.00
mmu-miR-3076-3p: SALvHet Z Score [1]: 0.00
mmu-miR-3088-3p: SALvHet Z Score [1]: −1.34
mmu-miR-6936-3p: SALvHet Z Score [1]: −0.71
mmu-miR-6936-3p: Sal Direction Opposite ISRIB? [1]: yes
mmu-miR-7224-3p: SALvHet Z Score [1]: 0.30
mmu-miR-7224-3p: Sal Direction Opposite ISRIB? [1]: yes
mmu-miR-467d-3p: SALvHet Z Score [1]: −0.01
SALvHet Z Score (mmu-let-7a-1-3p): 0.28
SALvHet Z Score (mmu-let-7c-2-3p): 0.28
SALvHet Z Score (mmu-let-7g-5p): −0.16
SALvHet Z Score (mmu-let-7i-3p): 0.35
Sal Direction Opposite ISRIB? (mmu-miR-30e-5p): yes
SALvHet Z Score (mmu-miR-30e-3p): −0.06
SALvHet Z Score (mmu-miR-15a-5p): 0.17
SALvHet Z Score (mmu-miR-16-5p): −0.01
SALvHet Z Score (mmu-miR-17-3p): 0.10
Sal Direction Opposite ISRIB? (mmu-miR-19b-3p): yes
SALvHet Z Score (mmu-miR-22-3p): 0.17
Sal Direction Opposite ISRIB? (mmu-miR-22-3p): yes
SALvHet Z Score (mmu-miR-23a-3p): 0.05
SALvHet Z Score (mmu-miR-25-3p): −0.04
Sal Direction Opposite ISRIB? (mmu-miR-26b-Sp): yes
SALvHet Z Score (mmu-miR-29b-3p): 0.38
SALvHet Z Score (mmu-miR-29c-3p): 0.40
SALvHet Z Score (mmu-miR-30a-5p): −0.09
SALvHet Z Score (mmu-miR-30b-5p): 0.15
SALvHet Z Score (mmu-miR-30c-5p (1st line so named)): 0.42
SALvHet Z Score (mmu-miR-30c-5p (2nd line so named)): 0.07
Sal Direction Opposite ISRIB? (mmu-miR-30c-5p): yes
SALvHet Z Score (mmu-miR-31-3p): −0.03
SALvHet Z Score (mmu-miR-31-5p): −0.14
SALvHet Z Score (mmu-miR-32-5p): 0.26
SALvHet Z Score (mmu-miR-33-5p): 0.26
SALvHet Z Score (mmu-miR-34a-5p): −0.03
SALvHet Z Score (mmu-miR-34b-5p): 0.38
SALvHet Z Score (mmu-miR-34c-3p): −0.37
SALvHet Z Score (mmu-miR-34c-5p): 0.07
Sal Direction Opposite ISRIB? (mmu-miR-34c-5p): yes
SALvHet Z Score (mmu-miR-96-5p): 0.13
Sal Direction Opposite ISRIB? (mmu-miR-96-5p): yes
SALvHet Z Score (mmu-miR-98-5p): −0.22
SALvHet Z Score (mmu-miR-99a-5p): −0.17
SALvHet Z Score (mmu-miR-101b-3p): 0.64
SALvHet Z Score (mmu-miR-106b-3p): −0.23
SALvHet Z Score (mmu-miR-106b-5p): 0.04
SALvHet Z Score (mmu-miR-124-3p): −0.72
SALvHet Z Score (mmu-miR-125b-1-3p): −0.41
SALvHet Z Score (mmu-miR-130b-3p): 0.32
Sal Direction Opposite ISRIB? (mmu-miR-130b-3p): yes
Sal Direction Opposite ISRIB? (mmu-miR-135a-5p): yes
SALvHet Z Score (mmu-miR-136-3p): 0.08
SALvHet Z Score (mmu-miR-140-3p): 0.50
Sal Direction Opposite ISRIB? (mmu-miR-140-3p): yes
SALvHet Z Score (mmu-miR-146a-5p): 0.02
SALvHet Z Score (mmu-miR-148a-3p): −0.02
SALvHet Z Score (mmu-miR-148b-3p): −0.07
SALvHet Z Score (mmu-miR-149-5p): 0.03
SALvHet Z Score (mmu-miR-151-5p): 0.12
SALvHet Z Score (mmu-miR-152-3p): −0.02
SALvHet Z Score (mmu-miR-181a-5p): −0.23
SALvHet Z Score (mmu-miR-181b-5p): −0.32
SALvHet Z Score (mmu-miR-181c-5p): 0.26
SALvHet Z Score (mmu-miR-182-5p): 0.01
Sal Direction Opposite ISRIB? (mmu-miR-182-5p): yes
SALvHet Z Score (mmu-miR-183-5p): −0.06
SALvHet Z Score (mmu-miR-185-5p): 0.15
SALvHet Z Score (mmu-miR-186-5p): 0.00
SALvHet Z Score (mmu-miR-187-3p): 0.30
Sal Direction Opposite ISRIB? (mmu-miR-187-3p): yes
SALvHet Z Score (mmu-miR-188-5p): −0.05
SALvHet Z Score (mmu-miR-190b-5p): 0.15
SALvHet Z Score (mmu-miR-191-5p): 0.04
SALvHet Z Score (mmu-miR-192-5p): 0.09
Sal Direction Opposite ISRIB? (mmu-miR-192-5p): yes
SALvHet Z Score (mmu-miR-194-5p): 0.18
SALvHet Z Score (mmu-miR-199a-3p): −0.10
SALvHet Z Score (mmu-miR-199b-3p): −0.10
SALvHet Z Score (mmu-miR-206-3p): −0.27
SALvHet Z Score (mmu-miR-214-5p): 0.04
SALvHet Z Score (mmu-miR-219a-5p): 0.34
SALvHet Z Score (mmu-miR-223-3p): −0.01
SALvHet Z Score (mmu-miR-224-5p): −0.27
SALvHet Z Score (mmu-miR-296-3p): 0.05
Sal Direction Opposite ISRIB? (mmu-miR-296-3p): yes
SALvHet Z Score (mmu-miR-298-5p): 0.16
Sal Direction Opposite ISRIB? (mmu-miR-298-5p): yes
SALvHet Z Score (mmu-miR-299a-3p): 0.39
SALvHet Z Score (mmu-miR-301a-3p): 0.35
SALvHet Z Score (mmu-miR-301b-3p): 0.01
SALvHet Z Score (mmu-miR-320-3p): −0.21
SALvHet Z Score (mmu-miR-322-5p): −0.07
SALvHet Z Score (mmu-miR-324-3p): 0.16
SALvHet Z Score (mmu-miR-335-Sp): −0.35
SALvHet Z Score (mmu-miR-340-5p): 0.31
SALvHet Z Score (mmu-miR-344-3p): 0.44
Sal Direction Opposite ISRIB? (mmu-miR-344-3p): yes
SALvHet Z Score (mmu-miR-350-3p): 0.08
SALvHet Z Score (mmu-miR-361-5p): −0.15
SALvHet Z Score (mmu-miR-362-3p): 0.47
Sal Direction Opposite ISRIB? (mmu-miR-362-3p): yes
SALvHet Z Score (mmu-miR-362-5p): −0.10
SALvHet Z Score (mmu-miR-378a-3p): −0.12
SALvHet Z Score (mmu-miR-450a-5p): 0.09
SALvHet Z Score (mmu-miR-450b-3p): −0.29
SALvHet Z Score (mmu-miR-451a): 0.38
SALvHet Z Score (mmu-miR-483-5p): −1.22
SALvHet Z Score (mmu-miR-500-3p): 0.10
SALvHet Z Score (mmu-miR-503-3p): −0.70
SALvHet Z Score (mmu-miR-532-5p): −0.06
SALvHet Z Score (mmu-miR-542-3p): 0.33
SALvHet Z Score (mmu-miR-542-5p): 0.39
Sal Direction Opposite ISRIB? (mmu-miR-542-5p): yes
SALvHet Z Score (mmu-miR-582-3p): −0.45
SALvHet Z Score (mmu-miR-652-3p): 0.34
SALvHet Z Score (mmu-miR-671-5p): 0.26
Sal Direction Opposite ISRIB? (mmu-miR-671-5p): yes
SALvHet Z Score (mmu-miR-700-3p): 0.16
SALvHet Z Score (mmu-miR-708-5p): 0.58
SALvHet Z Score (mmu-miR-872-5p): 0.19
SALvHet Z Score (mmu-miR-1291): −0.06
SALvHet Z Score (mmu-miR-1843a-5p): 0.07
SALvHet Z Score (mmu-miR-3102-3p): 0.35
SALvHet Z Score (mmu-miR-3535): −0.66
SALvHet Z Score (mmu-miR-5121): 0.22
Sal Direction Opposite ISRIB? (mmu-miR-5121): yes
Sal Direction Opposite ISRIB? (mmu-miR-30h-5p): yes
SALvHet Z Score (mmu-miR-30d-5p): −0.11
SALvHet Z Score (mmu-miR-344d-3p): −1.00
